Assay results reported in patent US4619943A, “Neolignans of Saururus cernuus L and analogues thereof” (priority 1984, dated 1986).
Several values for one entry are separate records, joined by “and”; a condition that tells them apart may be missing. Equal values may be shown once.

Tests used:
[1] = Antiamphetamine activity (method of Weissman et al., mice instead of rats); assay type: in vivo
Experimental: Neuroleptic drugs are said to bind to postsynaptic dopamine receptors in the brain, thereby blocking dopaminergic transmission. […] Based on this, an assay for possible neuroleptic activity was developed and is commonly used. […] 151, 339 (1966)), except that mice were used instead of rats. A comparison under the same conditions was also made of the antiamphetamine activity of a standard neuroleptic drug, haloperidol, which gave an ED50 value of 0.5 mg/Kg (Table 2).

[2] = test system: M. incognita; test: Effect on nematode motility; assay type: in vivo, Meloidogyne incognita; settings: 24 hours, of 300 juveniles; for Number of Motile Nematodes, Avg.: water 233.6
Experimental: In a separate test, 300 juveniles of M. incognita were placed in a container closed with a screen of openings 17 μm and exposed to various concentrations of the test compound. After 24 hours, the number of nematodes able to migrate downward (from the inverted container) were counted. Eight replicates were run for each sample, and the results were analyzed by Duncan's

[3] = test system: mosquito larvae (Aedes aegypti); test: Mosquito larvae test; assay type: in vivo; settings: 24 hours
Experimental: Similarly, in a test using mosquito larvae (Aedes aegypti) as the insect test species, SC-7 gave 15% mortality and SC-8 gave 93% mortality at an application rate of 100 ppm. In this test, one ml of a solution of 1000 ppm of the test compound in 10% acetone - 90% water was added to 9 ml of water in a culture tube. Ten mosquito larvae were added, and mortality readings were taken 24 hours later.

[4] = Suppression of aggressiveness in isolated mice; assay type: in vivo, male Swiss mice; settings: eighty minutes after injection; for % Inhibition of Aggressiveness: 2 mg/Kg
Experimental: They were not disturbed except for replacement of food. Under these conditions, about two thirds of the mice became aggressive as manifested by vicious attacks within one minute on a nonisolated male mouse placed in their cage. Such combative mice were divided into two groups. With one group held as the control, the mice in other group were injected with SC-8 at 2 or 1 mg/Kg. The mice were tested for aggressiveness before the injection and eighty minutes after the injection. If no fighting took place with a nonisolated mouse introduced into the cage, this was regarded as inhibition of aggressiveness (P. A. J. Janssen, A. H. Jageneau and C. J. E. Niemegeers; J. Pharmacol, Exp. Ther. 129, 471 (1960)). The experiment was repeated with SC-8 at 2 mg/Kg.

[5] = test system: mice; test: Neuroleptic / CNS-depressant activity in experimental animals (general statements); assay type: in vivo
[6] = Solubility; assay type: physicochemical

**Q.** Which ED50 ([1]; Mus musculus, mice, inhibition of amphetamine-induced agitation, stereotypy, body-hydration) does the source give for `COc1ccc(C(O)C(C)Oc2ccc([C@@H]3O[C@@H](c4ccc(OC(C)C(O)c5ccc(OC)c(OC)c5)c(OC)c4)[C@@H](C)[C@@H]3C)cc2OC)cc1OC` (stereo partly drawn) [SC-8, 2α,5β-bis[3-methoxy-4-{threo-3-hydroxy-3-(3,4-dimethoxyphenyl)}isopropoxyphenyl]-3α,4β-dimethyltetrahydrofuran] here?
**A.** 0.2 mg/kg

**Q.** What about the “% Inhibition (antiamphetamine activity)” value ([1]; mice, dose 0.03 mg/Kg) of the same compound?
**A.** 20%

**Q.** And the “% Inhibition (antiamphetamine activity)” value ([1]; mice, dose 0.1 mg/Kg)?
**A.** 40%

**Q.** And the “% Inhibition (antiamphetamine activity)” value ([1]; mice, dose 0.3 mg/Kg)?
**A.** 60%

**Q.** What about the “% Inhibition (antiamphetamine activity)” value ([1]; mice, dose 0.5 mg/Kg) of the same compound?
**A.** 60%

**Q.** And the “% Inhibition (antiamphetamine activity)” value ([1]; mice, dose 1.0 mg/Kg)?
**A.** 70%

**Q.** And the “% Inhibition (antiamphetamine activity)” value ([1]; mice, dose 1.2 mg/Kg)?
**A.** 80%

**Q.** And the “% Inhibition (antiamphetamine activity)” value ([1]; mice, dose 1.5 mg/Kg)?
**A.** 80%

**Q.** And the “inhibiting hyperactivity, agitation, and other effects induced by CNS stimulants of the amphetamine class (summary)” value ([1]; summary statement, no dose)?
**A.** significant activity

**Q.** And the “Number of Motile Nematodes, single replicates (1 to 8)” value (“Number of Motile Nematodes … (1 to 8)” below) ([2]; 1 ppm)?
**A.** 258 and 233 and 186 and 340 and 295 and 248 and 103 and 238

**Q.** And the “Number of Motile Nematodes, Avg.” value ([2]; 1 ppm)?
**A.** 237.6

**Q.** And the “Number of Motile Nematodes … (1 to 8)” value ([2]; 5 ppm)?
**A.** 113 and 294 and 223 and 236 and 264 and 256 and 205 and 211

**Q.** And the “Number of Motile Nematodes, Avg.” value ([2]; 5 ppm)?
**A.** 225.3

**Q.** What about the “Number of Motile Nematodes … (1 to 8)” value ([2]; 10 ppm) of the same compound?
**A.** 188 and 170 and 174 and 263 and 204 and 214 and 228

**Q.** What about the “Number of Motile Nematodes, Avg.” value ([2]; 10 ppm) of the same compound?
**A.** 201.4

**Q.** What about the “Number of Motile Nematodes … (1 to 8)” value ([2]; 25 ppm) of the same compound?
**A.** 67 and 85 and 97 and 56 and 99 and 120 and 131 and 84

**Q.** What about the “Number of Motile Nematodes, Avg.” value ([2]; 25 ppm) of the same compound?
**A.** 92.4

**Q.** And the “Number of Motile Nematodes … (1 to 8)” value ([2]; 50 ppm)?
**A.** 163 and 223 and 109 and 102 and 31 and 232 and 225 and 108

**Q.** What about the “Number of Motile Nematodes, Avg.” value ([2]; 50 ppm) of the same compound?
**A.** 149.1

**Q.** What about the mortality at 100 ppm [3] of the same compound?
**A.** 93%

**Q.** And the “Inhibition of Aggressiveness (in words)” value ([4]; 1 mg/Kg, 3 mice)?
**A.** Slight

**Q.** And the “% Inhibition of Aggressiveness” value ([4]; 3 mice)?
**A.** > 75%

**Q.** And the “% Inhibition of Aggressiveness” value ([4]; 5 mice, repeat experiment)?
**A.** > 75%

**Q.** And the CNS-depressant activity ([5]; experimental animals / mice)?
**A.** useful CNS-depressant activity

**Q.** What about the neuroleptic activity ([5]; mouse, in vivo) of the same compound?
**A.** neuroleptically active

**Q.** And the “solubility in alcohols, acetone, chloroform, benzene and ethyl acetate” value ([6]; alcohols, acetone, chloroform, benzene, ethyl acetate)?
**A.** readily soluble

**Q.** And the solubility in ether ([6]; ether)?
**A.** sparingly

**Q.** What about the “solubility in hexane or water” value ([6]; hexane or water) of the same compound?
**A.** very slightly
